Data reported in article PMC8776092, “A Toxoplasma gondii Oxopurine Transporter Binds Nucleobases and Nucleosides Using Different Binding Modes” (International Journal of Molecular Sciences, 2022).
Where “and” joins values, the source holds several entries; their conditions need not be identical. Equal values may be shown once. Read-outs that look alike come from different tables or passages of the source.

Key:
Tg244440 [1] = molecular target: T1, Tg244440 (Toxoplasma gondii, UniProt A0A125YNC9); assay: [3H]-guanine uptake and its inhibition in T. brucei TbNB-KO procyclics expressing Tg244440 (clone F5); assay type: cell-based; conditions: for Rate of [3H]-guanine uptake, +Tg244440: clone F5; for ΔG^0 (Gibbs free energy of interaction): calculated from Km or Ki, ΔG0 = −RTln(Ki); for Ki: competition with 50 nM [3H]-guanine, 30 s, Cheng-Prusoff
T1 sequence (A0A125YNC9 1-462): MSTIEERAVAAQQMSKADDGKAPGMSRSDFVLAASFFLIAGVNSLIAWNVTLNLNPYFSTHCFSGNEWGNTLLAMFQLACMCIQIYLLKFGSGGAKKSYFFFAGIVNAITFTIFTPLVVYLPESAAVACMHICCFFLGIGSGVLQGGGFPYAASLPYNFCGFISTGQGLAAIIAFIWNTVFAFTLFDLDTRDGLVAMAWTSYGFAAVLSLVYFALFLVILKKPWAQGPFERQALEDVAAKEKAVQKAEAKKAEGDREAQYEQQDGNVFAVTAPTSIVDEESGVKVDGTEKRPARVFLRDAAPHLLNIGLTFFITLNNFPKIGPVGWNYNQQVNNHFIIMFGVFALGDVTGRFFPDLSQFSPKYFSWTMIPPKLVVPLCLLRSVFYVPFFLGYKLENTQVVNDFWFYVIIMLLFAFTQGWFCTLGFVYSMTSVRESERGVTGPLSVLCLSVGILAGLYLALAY
Description: (§1) Briefly, PCF cells of T. brucei in logarithmic growth were harvested by centrifugation at 1000× g for 10 min, washed twice in AB and then resuspended in fresh buffer at a final density of 10^8 cells/mL. […] Immediately after finishing the assay, all tubes were flash-frozen in liquid nitrogen and the cell pellets were cut into scintillation vials and lysed with a solution of 2% SDS for one hour under agitation. Then, 3 mL of scintillation fluid (Scintilogic U, Lablogic) was added to each vial and left agitating overnight on a rocking platform. The next morning, the vials were vigorously shaken to ensure optimal mixing and the scintillation was measured in a 300SL (Hidex) scintillation counter. All assays were carried out in triplicate. All experimental data such as Km, Ki and Vmax values are the average and SEM of at least three separate experiments, each in triplicate, unless otherwise indicated.
(§2) Background scintillation was measured in vials containing no cells or radiolabeled substrate, and counts associated with extracellular radiolabel were calculated from samples where cells were briefly incubated with the same concentration of radiolabel, but in the presence of saturating concentrations of non-radiolabeled substrate before centrifugation through oil. The average of the three control replicates was subtracted from each data point.

[2] = system: TbNBT-KO cells transfected with the empty vector (EV); assay: [3H]-guanine and [3H]-hypoxanthine uptake in TbNBT-KO cells transfected with the empty vector (EV); assay type: cell-based, Trypanosoma brucei; conditions: empty vector cells
Description: as §1, §2

Tg244440 [3] = molecular target: T1, Tg244440; assay type: cell-based; conditions: 0.1 μM [3H]-permeant, 60 s, clones B11, F5 and G10
Description: Figure 2 Uptake of radiolabelled nucleosides and nucleobases by in three clonal lines of T. brucei NB-KO procyclics, expressing Tg244440 in pHD1336. EV, empty vector control. Radiolabel concentration was 0.1 µM and uptake was measured over 60 s, in triplicate (average and SEM shown). Statistically significant differences between the control and the Tg244440-expressing cells were established using Student’s unpaired t-test. *, p < 0.05, **, p < 0.01, ***, p < 0.001.
as §1

T. gondii = conditions: cited from earlier work
[4] = [Permeant] 25 μM (unlabelled guanine to saturate the transporter)

Compound | ΔG^0 (Gibbs free energy of interaction) (Tg244440 [1]) | Ki (Tg244440 [1]; Ki) | δ(ΔG^0) relative to Adenosine (Tg244440 [1]) | further results
Nc1nc2nc[nH]c2c(=O)[nH]1 [Guanine] | -8.05 kcal/mol |  |  | Rate of [3H]-guanine uptake, +Tg244440 (Tg244440 [1]; [Permeant] 0.05 μM, over 60 s): 0.037 ± 0.003 pmol(10^7 Cells)^−1s^−1; Rate of [3H]-guanine uptake, +Tg244440 (Tg244440 [1]; [Permeant] 0.05 μM, over 60 s, listed as guanine): 0.037 pmol(10^7 Cells)^−1s^−1; Rate of [3H]-guanine uptake, +Tg244440 (Tg244440 [1]; [4]): 0.00092 ± 0.00067 pmol(10^7 Cells)^−1s^−1; Sum of δ(ΔG^0) for the 7-deaza and 9-deaza analogues (Tg244440 [1]; analogues of the named nucleobase): 14.2 kJ/mol; Rate of [3H]-guanine uptake, EV ([2]; [Permeant] 0.05 μM, over 60 s): 0.00059 pmol(10^7 Cells)^−1s^−1; Rate of [3H]-guanine uptake, EV [2, 4]: 0.0015 ± 0.0002 pmol(10^7 Cells)^−1s^−1; Uptake of radiolabelled permeant in Tg244440 clones compared to empty vector (Tg244440 [3]): highly significant increases
Cc1cn([C@H]2C[C@H](O)[C@@H](CO)O2)c(=O)[nH]c1=O [thymidine] |  |  |  | Uptake of radiolabelled permeant in Tg244440 clones compared to empty vector (Tg244440 [3]): only slightly increased
O=[N+]([O-])c1ccc(CSc2ncnc3c2ncn3[C@@H]2O[C@H](CO)[C@@H](O)[C@H]2O)cc1 [S-(4-nitrobenzyl)-6-thioinosine (NBMPR), S-(4-nitrobenzyl)-6-thioinosine] | -5.59 kcal/mol | 78 ± 6 µM | 0.0837 kcal/mol | 
Nc1nc2c(ncn2[C@@H]2O[C@H](CO)C[C@H]2O)c(=O)[nH]1 [3′-deoxyguanosine] | -5.07 kcal/mol | 196 ± 12 µM |  | δ(ΔG^0) relative to Guanosine (Tg244440 [1]): 2.25 kcal/mol and 2.41 kcal/mol
Cn1cnc2c(=O)cc[nH]c21 [9-Me,1-deazahypoxanthine] |  |  |  | Ki (Tg244440 [1]; read-out: Ki): > 1000 µM; δ(ΔG^0) relative to Hypoxanthine (Tg244440 [1]; relative to Hypoxanthine): >3.61 kcal/mol
O=c1[nH]cnc2[nH]nc(Br)c12 [7-Br-allopurinol] | -5.71 kcal/mol |  |  | Ki (Tg244440 [1]; read-out: Ki): 65.7 ± 3.7 µM
Nc1ncnc2c1ccn2[C@@H]1O[C@H](CO)C[C@H]1O [3′-deoxy,7-deazaadenosine] | -4.23 kcal/mol | 797 ± 116 µM | 1.46 kcal/mol | 
OC[C@@H]1CC[C@H](n2cnc3c(O)ncnc32)O1 [2′,3′-dideoxyinosine] | -4.3 kcal/mol | 698 ± 52 µM |  | δ(ΔG^0) relative to Inosine (Tg244440 [1]): 3.06 kcal/mol; Activity against T. gondii (in words) (T. gondii): active in vitro and in vivo
Nc1ccnc2c1ncn2[C@@H]1O[C@H](CO)[C@@H](O)[C@H]1O [1-deazaadenosine] | -5.07 kcal/mol | 191 ± 10 µM | 0.621 kcal/mol | 
OC[C@@H]1C[C@@H](O)[C@H](n2cnc3c(O)ncnc32)O1 [3′-deoxyinosine] | -5.45 kcal/mol | 102 ± 15 µM |  | δ(ΔG^0) relative to Inosine (Tg244440 [1]): 1.91 kcal/mol
OC[C@H]1O[C@@H](n2ccc3c(O)ncnc32)[C@H](O)[C@@H]1O [7-deazainosine] | -7.1 kcal/mol | 6.32 ± 0.32 µM |  | δ(ΔG^0) relative to Inosine (Tg244440 [1]): 0.263 kcal/mol
Nc1nc2c(ncn2[C@H]2C[C@H](O)[C@@H](CO)O2)c(=O)[nH]1 [2′-deoxyguanosine] | -4.85 kcal/mol | 281 ± 6 µM |  | δ(ΔG^0) relative to Guanosine (Tg244440 [1]): 2.63 kcal/mol; δ(ΔG^0) relative to Guanosine (Tg244440 [1]; listed as 2′-Deoxyguanosine): 2.63 kcal/mol
Nc1ncnc2c1ncn2[C@@H]1O[C@H](CO)C[C@H]1O [3′-deoxyadenosine] | -5.64 kcal/mol | 71.9 ± 2.3 µM | 0.024 kcal/mol | 
